In the NIST ThermoML archive (doi:10.1016/j.jct.2017.04.003) one finds Normal melting temperature and Triple point temperature data, which are given here for one molecule.

Numbers after ± are expanded uncertainties.

With `[Na+].[Na+].[O-][O-]` [sodium peroxide], under “Crystal 1, DTA”, the Normal melting temperature was 666.6 ± 10 °C. Further, the Triple point temperature (Crystal 2, DSC) worked out at 756.8 ± 10 K.
